Measurements from patent US11267811B2, “Small molecule inhibitors of galectin-3” (BRISTOL-MYERS SQUIBB COMPANY, priority 2017, dated 2022).
Where two headings read alike, the source gives them in different places.

Target: His-tagged recombinant human Gal-3 (hGal-3) (Homo sapiens (Human), UniProt P17931)
Test: Gal-3 HTRF assay (His-tagged hGal-3 binding to B-ASF);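 also: compounds preincubated 30 min with hGal-3, then 1 h with B-ASF, detection via terbium anti-His antibody and streptavidin d2. Control with B-ASF counts as full signal, omitting B-ASF as background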
[1] = HTRF, hGal-3 15 nM, B-ASF 15 nM, read-out: hGal-3 IC50

His-tagged recombinant human Gal-3 (hGal-3), sequence (P17931 whole entry): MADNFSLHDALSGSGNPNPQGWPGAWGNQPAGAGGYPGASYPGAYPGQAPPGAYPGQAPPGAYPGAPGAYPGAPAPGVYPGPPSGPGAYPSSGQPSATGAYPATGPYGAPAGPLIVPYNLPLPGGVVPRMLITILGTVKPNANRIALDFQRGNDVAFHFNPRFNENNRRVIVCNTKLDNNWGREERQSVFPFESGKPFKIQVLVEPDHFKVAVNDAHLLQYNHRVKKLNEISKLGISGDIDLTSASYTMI

| Structure (SMILES) | IC50 (read-out: hGal3 IC50) | IC50 [1] |
| --- | --- | --- |
| Cc1nc2cc(-c3cn([C@H]4[C@@H](O)[C@@H](CO)O[C@@H](c5ncnn5-c5ccc6nc(C)sc6c5)[C@@H]4O)nn3)cc(F)c2o1 [Example 227] | 250 nM |  |
| Cc1nc2ccc(-n3ncnc3[C@@H]3O[C@H](CO)[C@H](O)[C@H](n4cc(-c5ccc(C#N)c(F)c5)nn4)[C@H]3O)cc2s1 [Example 230] | 450 nM |  |
| Cc1nc2ccc(-n3ncnc3[C@@H]3O[C@H](CO)[C@H](O)[C@H](n4cc(-c5ccc(CC#N)c(F)c5)nn4)[C@H]3O)cc2s1 [Example 231] | 390 nM |  |
| COc1cc(-c2cn([C@H]3[C@@H](O)[C@@H](CO)O[C@@H](c4ncnn4-c4ccc5nc(C)sc5c4)[C@@H]3O)nn2)cc(F)c1F [Example 232] | 40 nM |  |
| COc1cc(F)c(F)cc1-c1cn([C@H]2[C@@H](O)[C@@H](CO)O[C@@H](c3ncnn3-c3ccc4nc(C)sc4c3)[C@@H]2O)nn1 [Example 233] | 240 nM |  |
| Cc1nc2ccc(-n3ncnc3[C@@H]3O[C@H](CO)[C@H](O)[C@H](n4cc(-c5cc(F)c(C#N)cc5C)nn4)[C@H]3O)cc2s1 [Example 235] | 390 nM |  |
| Cc1nc2ccc(-n3ncnc3[C@@H]3O[C@H](CO)[C@H](O)[C@H](n4cc(-c5cc(C)c(C#N)c(F)c5)nn4)[C@H]3O)cc2s1 [Example 236] | 240 nM |  |
| Cc1nc2ccc(-n3ncnc3[C@@H]3O[C@H](CO)[C@H](O)[C@H](n4cc(-c5ccc(Cl)cc5)nn4)[C@H]3O)cc2s1 [Example 237] | 210 nM |  |
| Cc1nc2ccc(-n3ncnc3[C@@H]3O[C@H](CO)[C@H](O)[C@H](n4cc(-c5cc(F)cc(Cl)c5)nn4)[C@H]3O)cc2s1 [Example 240] | 160 nM |  |
| Cc1nc2ccc(-n3ncnc3[C@@H]3O[C@H](CO)[C@H](O)[C@H](n4cc(-c5cc(F)c(N6CCC(O)CC6)c(F)c5)nn4)[C@H]3O)cc2s1 [Example 241, (2R,3R,4R,5R,6S)-4-(4-(3,5-difluoro-4-(4-hydroxypiperidin-1-yl)phenyl)-1H-1,2,3-triazol-1-yl)-2-(hydroxymethyl)-6-(1-(2-methylbenzo[d]thiazol-6-yl)-1H-1,2,4-triazol-5-yl)tetrahydro-2H-pyran-3,5-diol] |  | 130 nM |
| Cc1nc2ccc(-n3ncnc3[C@@H]3O[C@H](CO)[C@H](O)[C@H](n4cc(-c5cc(F)c(N6CC(O)C6)c(F)c5)nn4)[C@H]3O)cc2s1 [Example 242] |  | 60 nM |
| Cc1nc2ccc(-n3ncnc3[C@@H]3O[C@H](CO)[C@H](O)[C@H](n4cc(-c5cc(F)c(N6CCOCC6)c(F)c5)nn4)[C@H]3O)cc2s1 [Example 243] |  | 80 nM |
| Cc1nc([C@H]2C[C@@H](n3cc(-c4cc(F)c(Cl)c(F)c4)nn3)[C@@H](O)[C@@H](CO)O2)n(-c2cc(Cl)ccc2Cl)n1 [Example 262] | 100 nM |  |
| Cc1nc([C@H]2C[C@@H](n3cc(-c4cc(F)c(Cl)c(F)c4)nn3)[C@@H](O)[C@@H](CO)O2)n(-c2cc(Cl)ccc2C)n1 [Example 263] | 120 nM |  |
| Cc1nc([C@H]2C[C@@H](n3cc(-c4cc(F)c(Cl)c(F)c4)nn3)[C@@H](O)[C@@H](CO)O2)n(-c2ccc3ncsc3c2)n1 [Example 265] | 30 nM |  |
| CCc1nc([C@@H]2O[C@H](CO)[C@H](O)[C@H](n3cc(-c4cc(F)c(F)c(F)c4)nn3)[C@H]2O)n(-c2ccc3nc(C)sc3c2)n1 [Example 267] |  | 60 nM |
| Cc1nc2ccc(-n3nc(CC(N)=O)nc3[C@@H]3O[C@H](CO)[C@H](O)[C@H](n4cc(-c5cc(F)c(F)c(F)c5)nn4)[C@H]3O)cc2s1 [Example 268] |  | 120 nM |
| Cc1nc2ccc(-n3nc(C(=O)O)nc3[C@H]3C[C@@H](n4cc(-c5cccc(F)c5)nn4)[C@@H](O)[C@@H](CO)O3)cc2s1 [Example 269, 5-((2R,4R,5R,6R)-4-(4-(3-fluorophenyl)-1H-1,2,3-triazol-1-yl)-5-hydroxy-6-(hydroxymethyl)tetrahydro-2H-pyran-2-yl)-1-(2-methylbenzo[d]thiazol-6-yl)-1H-1,2,4-triazole-3-carboxylic acid] |  | 330 nM |
| Cc1nc2ccc(-n3nc(C(C)(C)O)nc3[C@H]3C[C@@H](n4cc(-c5cc(F)c(F)c(F)c5)nn4)[C@@H](O)[C@@H](CO)O3)cc2s1 [Example 270, (2R,3R,4R,6R)-2-(hydroxymethyl)-6-(3-(2-hydroxypropan-2-yl)-1-(2-methylbenzo[d]thiazol-6-yl)-1H-1,2,4-triazol-5-yl)-4-(4-(3,4,5-trifluorophenyl)-1H-1,2,3-triazol-1-yl)tetrahydro-2H-pyran-3-ol] |  | 170 nM |
| CNC(=O)c1nc([C@H]2C[C@@H](n3cc(-c4cccc(F)c4)nn3)[C@@H](O)[C@@H](CO)O2)n(-c2ccc3nc(C)sc3c2)n1 [Example 271, 5-((2R,4R,5R,6R)-4-(4-(3-fluorophenyl)-1H-1,2,3-triazol-1-yl)-5-hydroxy-6-(hydroxymethyl)tetrahydro-2H-pyran-2-yl)-N-methyl-1-(2-methylbenzo[d]thiazol-6-yl)-1H-1,2,4-triazole-3-carboxamide] |  | 390 nM |
| Cc1nnc([C@@H]2O[C@H](CO)[C@H](O)[C@H](n3cc(-c4cc(F)c(F)c(F)c4)nn3)[C@H]2O)n1-c1cccc(Cl)c1 [Example 272, (2S,3R,4R,5R,6R)-2-(4-(3-chlorophenyl)-5-methyl-4H-1,2,4-triazol-3-yl)-6-(hydroxymethyl)-4-(4-(3,4,5-trifluorophenyl)-1H-1,2,3-triazol-1-yl)tetrahydro-2H-pyran-3,5-diol] |  | 70 nM |
| Cc1nc2ccc(-n3c(C)nnc3[C@@H]3O[C@H](CO)[C@H](O)[C@H](n4cc(-c5cc(F)c(F)c(F)c5)nn4)[C@H]3O)cc2s1 [Example 273, (2R,3R,4R,5R,6S)-2-(hydroxymethyl)-6-(5-methyl-4-(2-methylbenzo[d]thiazol-6-yl)-4H-1,2,4-triazol-3-yl)-4-(4-(3,4,5-trifluorophenyl)-1H-1,2,3-triazol-1-yl)tetrahydro-2H-pyran-3,5-diol] |  | 40 nM |
| Cc1nc2ccc(-n3c([C@@H]4O[C@H](CO)[C@H](O)[C@H](n5cc(-c6cc(F)c(F)c(F)c6)nn5)[C@H]4O)nnc3C(F)(F)F)cc2s1 [Example 274] | 50 nM |  |
| CCOC(=O)c1nnc([C@@H]2O[C@H](CO)[C@H](O)[C@H](n3cc(-c4cc(F)c(F)c(F)c4)nn3)[C@H]2O)n1-c1ccc2nc(C)sc2c1 [Example 275] | 60 nM |  |
| Cc1nc2ccc(-n3c([C@@H]4O[C@H](CO)[C@H](O)[C@H](n5cc(-c6cc(F)c(F)c(F)c6)nn5)[C@H]4O)nnc3C(C)(C)O)cc2s1 [Example 276, (2R,3R,4R,5R,6S)-2-(hydroxymethyl)-6-(5-(2-hydroxypropan-2-yl)-4-(2-methylbenzo[d]thiazol-6-yl)-4H-1,2,4-triazol-3-yl)-4-(4-(3,4,5-trifluorophenyl)-1H-1,2,3-triazol-1-yl)tetrahydro-2H-pyran-3,5-diol] |  | 50 nM |

More lines, now with the values ahead:

| IC50 (read-out: hGal3 IC50) | IC50 [1] | Structure (SMILES) |
| --- | --- | --- |
| 420 nM |  | Cc1nc2ccc(-n3ncnc3[C@@H]3O[C@H](CO)[C@H](O)[C@H](n4cc(-c5cc(F)cc(C(F)(F)F)c5)nn4)[C@H]3O)cc2s1 [Example 228] |
| 980 nM |  | Cc1nc2ccc(-n3ncnc3[C@@H]3O[C@H](CO)[C@H](O)[C@H](n4cc(-c5ccc(OC(F)(F)F)c(F)c5)nn4)[C@H]3O)cc2s1 [Example 229] |
|  | 80 nM | Cc1nc([C@@H]2O[C@H](CO)[C@H](O)[C@H](n3cc(-c4ccc(Cl)c(F)c4)nn3)[C@H]2O)n(-c2cccc(Cl)c2)n1 [Example 244, (2S,3R,4R,5R,6R)-4-(4-(4-chloro-3-fluorophenyl)-1H-1,2,3-triazol-1-yl)-2-(1-(3-chlorophenyl)-3-methyl-1H-1,2,4-triazol-5-yl)-6-(hydroxymethyl)tetrahydro-2H-pyran-3,5-diol] |
| 30 nM |  | Cc1nc([C@@H]2O[C@H](CO)[C@H](O)[C@H](n3cc(-c4ccc(Cl)c(F)c4)nn3)[C@H]2O)n(-c2cc(Cl)ccc2Cl)n1 [Example 246] |
| 450 nM |  | Cc1nc([C@@H]2O[C@H](CO)[C@H](O)[C@H](n3cc(-c4ccc(Cl)c(F)c4)nn3)[C@H]2O)n(-c2ccccc2)n1 [Example 247] |
| 90 nM |  | Cc1nc([C@@H]2O[C@H](CO)[C@H](O)[C@H](n3cc(-c4ccc(Cl)c(F)c4)nn3)[C@H]2O)n(-c2cc(Cl)ccc2F)n1 [Example 249] |
| 80 nM |  | COc1ccc(Cl)cc1-n1nc(C)nc1[C@@H]1O[C@H](CO)[C@H](O)[C@H](n2cc(-c3ccc(Cl)c(F)c3)nn2)[C@H]1O [Example 251] |
| 110 nM |  | Cc1nc([C@@H]2O[C@H](CO)[C@H](O)[C@H](n3cc(-c4ccc(Cl)c(F)c4)nn3)[C@H]2O)n(-c2ccc(Cl)c(Cl)c2)n1 [Example 252] |
| 80 nM |  | Cc1nc([C@@H]2O[C@H](CO)[C@H](O)[C@H](n3cc(-c4ccc(Cl)c(F)c4)nn3)[C@H]2O)n(-c2ccc3ncccc3c2)n1 [Example 253] |
| 110 nM |  | Cc1nc([C@@H]2O[C@H](CO)[C@H](O)[C@H](n3cc(-c4ccc(Cl)c(F)c4)nn3)[C@H]2O)n(-c2cc(F)ccc2C(F)(F)F)n1 [Example 254] |
| 70 nM |  | Cc1nc([C@@H]2O[C@H](CO)[C@H](O)[C@H](n3cc(-c4ccc(Cl)c(F)c4)nn3)[C@H]2O)n(-c2cc(C(F)(F)F)ccc2Cl)n1 [Example 255] |
| 80 nM |  | Cc1nc([C@@H]2O[C@H](CO)[C@H](O)[C@H](n3cc(-c4ccc(Cl)c(F)c4)nn3)[C@H]2O)n(-c2ccc3ncsc3c2)n1 [Example 256] |
|  | 50 nM | CO[C@@H]1[C@@H](n2cc(-c3ccc(Cl)c(F)c3)nn2)[C@@H](O)[C@@H](CO)O[C@H]1c1nc(C)nn1-c1cc(Cl)ccc1Cl [Example 257, (2R,3R,4S,5R,6S)-4-(4-(4-chloro-3-fluorophenyl)-1H-1,2,3-triazol-1-yl)-6-(1-(2,5-dichlorophenyl)-3-methyl-1H-1,2,4-triazol-5-yl)-2-(hydroxymethyl)-5-methoxytetrahydro-2H-pyran-3-ol] |
|  | 60 nM | CO[C@@H]1[C@@H](n2cc(-c3ccc(Cl)c(F)c3)nn2)[C@@H](O)[C@@H](CO)O[C@H]1c1nc(C)nn1-c1cc(Cl)ccc1C [Example 258] |
|  | 50 nM | Cc1nc([C@@H]2O[C@H](CO)[C@H](O)[C@H](n3cc(-c4cc(F)c(Cl)c(F)c4)nn3)[C@H]2O)n(-c2cc(Cl)ccc2Cl)n1 [Example 260] |
|  | 20 nM | Cc1nc([C@@H]2O[C@H](CO)[C@H](O)[C@H](n3cc(-c4cc(F)c(Cl)c(F)c4)nn3)[C@H]2O)n(-c2cc(Cl)ccc2C)n1 [Example 261] |
